Data published in patent publication US5407815A, “R-(-)-1-(5-hydroxyhexyl)-3-methyl-7-propylxanthine, a process for its preparation and pharmaceuticals containing this compound” (Hoechst Aktiengesellschaft, priority 1989, dated 1995).

What was measured:
cerebral blood flow = details: known from DE-C-2,366,527; cited from earlier work
[1] = test system: regional cerebral blood flow; assay: Regional cerebral blood flow of the cat, heat conductivity technique (heat transport number λ); type: in vivo; details: for duration of action as the half life t1/2 / Δλ% (mean percentage change of the heat transport number): anesthetized cat, 25 mg/kg intraduodenally; for Δλ% (mean percentage change of the heat transport number): suspension in 1% carboxymethylcellulose, n = 6 to 11; for conversion factor (f), based on Δλ%=1 for the racemate: intraduodenal, 25 mg/kg; for cerebral blood flow-stimulating action relative to racemate: racemate made equal to 1
Method: The action of compound 1 according to the invention on the regional cerebral blood flow was investigated in comparison with the racemate 2 and the S-(+)-enantiomer 3 with the aid of the heat conductivity technique according to F. A. Gibbs (Proc. Soc. exp. Biol. (N.Y.) 31 (1933), pp. 141 et seq.), H. Hensel (Naturwissenschaften 43 (1956), pp. 477 et seq.) and E. Betz (Acta Neurol. Scand. Suppl. 14 (1965), pp. 29-37) in cats of both sexes under sodium pentobarbital anesthesia (35 mg/kg i.p.). In this method, with the aid of a heat conductivity probe applied to the surface of the brain in the region of the Gyrus marginalis frontalis, the transport of heat from a point of heating to an adjacent temperature-measuring site in the probe, which is directly proportional to the level of the cerebral blood flow, is determined. The mean percentage change in the heat transport number λ after administration of the preparation is used as a measure of the increase in blood flow.
The compounds were administered intraduodenally as a suspension in 1% strength aqueous carboxymethylcellulose. The dose was 25 mg of test substance per kg of body weight. 6 to 11 individual experiments were carried out for each test preparation and the mean percentage change in the heat transport number (Δλ%) was determined from the measurement data obtained.
The melting points m.p., the enantiomeric purities e.e. (enantiomeric excess), the number of measurements n, the mean percentage change (Δλ%) of the heat transport number as a measure of the potency, the conversion factors f, based on Δλ%=1 for the racemate, and the duration of action as the half life t1/2 (min) for R-(-)-1-(5-hydroxyhexyl)-3-methyl-7-propylxanthine (1), the corresponding enantiomer S-(+)-1-(5-hydroxyhexyl)-3-methyl-7-propylxanthine (3) and the racemate (2) of the two compounds is indicated in Table 1.

Structure (SMILES)	cerebral blood flow-stimulating action (qualitative) (cerebral blood flow)	duration of action as the half life t1/2 [1] [min]	Δλ% (mean percentage change of the heat transport number) [1]	conversion factor (f), based on Δλ%=1 for the racemate [1]	cerebral blood flow-stimulating action relative to racemate [1]	cerebral blood flow-stimulating action of R-(-)-enantiomer relative to S-(+)-antipode ([1]; ratio R-(-) to S-(+))	duration of action of R-(-)-compound relative to S-(+)-compound ([1]; ratio R-(-) to S-(+))
CCCn1cnc2c1c(=O)n(CCCCC(C)O)c(=O)n2C (racemic) [Compound 2, 1-(5-hydroxyhexyl)-3-methyl-7-propylxanthine]	cerebral blood flow-stimulating action	100	+24%	1.00	1		
CCCn1cnc2c1c(=O)n(CCCC[C@@H](C)O)c(=O)n2C [Compound 1, R-(-)-1-(5-hydroxyhexyl)-3-methyl-7-propylxanthine]		100	+45%	1.88	about 2	about three	about three
CCCn1cnc2c1c(=O)n(CCCC[C@H](C)O)c(=O)n2C [Compound 3, S-(+)-1-(5-hydroxyhexyl)-3-methyl-7-propylxanthine]		36	+16%	0.67	about 0.65		
